Values quoted from earlier work, collected in PubChem BioAssay AID1259409 (Chemical Carcinogenesis Research Information System (CCRIS), 2018).
Values joined by “and” are separate entries in the source; they are usually repeats but may differ in a detail not shown here. Equal values may be shown once.

Test system: rodent chemically induced tumor inhibition, incidence and multiplicity
Assay: CCRIS tumor inhibitor studies

CN1C(=O)NC(c2ccccc2)(c2ccccc2)C1=O
tumour outcome (control, treated, inhibition, significance) (Carcinogen: 7,12-DIEMTHYLBENZ[A]ANTHRACENE, 57-97-6, Dose [Inhibitor]: 0, 200 UG/D IN ETHANOL/DRINKING WATER SOLUTION (1:500 ML) ADMINISTERED TO PINEALECTOMIZED RATS BEGINNING 1 WK POST CARCI, Route [Inhibitor]: ORAL, Species: RAT, Strain/Sex: SPRAGUE-DAWLEY/FEMALE, Target Tissue: Type of Lesion: MAMMARY GLAND: TUMOR, Dose [Carcinogen]: 10 MG/ML SESAME OIL ADMINISTERED ONCE AT 55 D OF AGE, Promoter: NONE USED): 80%, 36%, 55%, p<0.05 | tumour outcome (control, treated, inhibition, significance) (Carcinogen: 7,12-DIMETHYLBENZ[A]ANTHRACENE, 57-97-6, Dose [Inhibitor]: 0, 200 UG/D ETHANOL/DRINKING WATER SOLUTION (1:500 ML) ADMINISTERED TO INTACT RATS BEGINNING 1 WK POST CARCINOGEN DOSE A, Route [Inhibitor]: ORAL, Species: RAT, Strain/Sex: SPRAGUE-DAWLEY/FEMALE, Target Tissue: Type of Lesion: MAMMARY GLAND: TUMOR, Dose [Carcinogen]: 10 MG/ML SESAME OIL ADMINISTERED ONCE AT 55 D OF AGE, Promoter: NONE USED): 88%, 24%, 73%, p<0.005 | tumour outcome (control, treated, inhibition, significance) (Carcinogen: 7,12-DIMETHYLBENZ[A]ANTHRACENE, 57-97-6, Dose [Inhibitor]: 0, 200 UG/D IN ETHANOL/DRINKING WATER SOLUTION (1:500 ML) ADMINISTERED TO INTACT RATS BEGINNING 1 WK POST CARCINOGEN DOS, Route [Inhibitor]: ORAL, Species: RAT, Strain/Sex: SPRAGUE-DAWLEY/FEMALE, Target Tissue: Type of Lesion: MAMMARY GLAND: TUMOR, Dose [Carcinogen]: 10 MG/ML SESAME OIL ADMINISTERED ONCE AT 55 D OF AGE, Promoter: NONE USED): 70%, 16%, 77%, p<0.005 | tumour outcome (control, treated, inhibition, significance) (Carcinogen: 7,12-DIMETHYLBENZ[A]ANTHRACENE, 57-97-6, Dose [Inhibitor]: 0, 200 UG/D IN ETHANOL/DRINKING WATER SOLUTION (1:500 ML) ADMINISTERED TO INTACT RATS BEGINNING 1 WK PRIOR TO CARCINOGEN, Route [Inhibitor]: ORAL, Species: RAT, Strain/Sex: SPRAGUE-DAWLEY/FEMALE, Target Tissue: Type of Lesion: MAMMARY GLAND: TUMOR, Dose [Carcinogen]: 10 MG/ML SESAME OIL ADMINISTERED ONCE AT 55 D OF AGE, Promoter: NONE USED): 70%, 27%, 61%, p<0.05 and 88%, 38%, 57%, p<0.05 | tumour outcome (control, treated, inhibition, significance) (Carcinogen: 7,12-DIMETHYLBENZ[A]ANTHRACENE, 57-97-6, Dose [Inhibitor]: 0, 200 UG/D IN ETHANOL/DRINKING WATER SOLUTION (1:500 ML) ADMINISTERED TO PINEALECTOMIZED RATS BEGINNING 1 WK POST CARCI, Route [Inhibitor]: ORAL, Species: RAT, Strain/Sex: SPRAGUE-DAWLEY/FEMALE, Target Tissue: Type of Lesion: MAMMARY GLAND: TUMOR, Dose [Carcinogen]: 10 MG/ML SESAME OIL ADMINISTERED ONCE AT 55 D OF AGE, Promoter: NONE USED): 90%, 31%, 66%, p<0.005 | tumour outcome (control, treated, inhibition, significance) (Carcinogen: 7,12-DIMETHYLBENZ[A]ANTHRACENE, 57-97-6, Dose [Inhibitor]: 0, 200 UG/D IN ETHANOL/DRINKING WATER SOLUTION (1:500 ML) ADMINISTERED TO PINEALECTOMIZED RATS BEGINNING 1 WK PRIOR TO C, Route [Inhibitor]: ORAL, Species: RAT, Strain/Sex: SPRAGUE-DAWLEY/FEMALE, Target Tissue: Type of Lesion: MAMMARY GLAND: TUMOR, Dose [Carcinogen]: 10 MG/ML SESAME OIL ADMINISTERED ONCE AT 55 D OF AGE, Promoter: NONE USED): 90%, 64%, 29%, not calculated | tumour outcome (control, treated, inhibition, significance) (Carcinogen: 7,12-DIMETHYLBENZ[A]ANTHRACENE, 57-97-6, Dose [Inhibitor]: 0, 200 UG/D IN ETHANOL/DRINKING WATER SOLUTION. (1:500 ML) ADMINISTERED TO PINEALECTOMIZED RATS BEGINNING 1 WK PRIOR TO, Route [Inhibitor]: ORAL, Species: RAT, Strain/Sex: SPRAGUE-DAWLEY/FEMALE, Target Tissue: Type of Lesion: MAMMARY GLAND: TUMOR, Dose [Carcinogen]: 10 MG/ML SESAME OIL ADMINISTERED ONCE AT 55 D OF AGE, Promoter: NONE USED): 80%, 65%, 19%, not calculated

CCCCCCCCCCCCCCCC(=O)OC[C@H](O)[C@H]1OC(=O)C(O)=C1O
tumour outcome (control, treated, inhibition, significance) (Carcinogen: 7,12-DIMETHYLBENZ[A]ANTHRACENE, 57-97-6, Dose [Inhibitor]: 0, 1 UMOL 1/WK 5 MIN PRIOR TO EACH PROMOTER DOSE BEGINNING 2 WK POST CARCINOGEN DOSE AND CONTINUING FOR 27 WK (STUDY DUR, Route [Inhibitor]: DERMAL, Species: MOUSE, Strain/Sex: SENCAR/FEMALE, Target Tissue: Type of Lesion: SKIN: PAPILLOMA, Dose [Carcinogen]: 25 NMOL ONCE, Promoter: CHRYSAROBIN, 491-58-7): 100%, 88%, 12%, not significant | tumour outcome (control, treated, inhibition, significance) (Carcinogen: 7,12-DIMETHYLBENZ[A]ANTHRACENE, 57-97-6, Dose [Inhibitor]: 0, 4 UMOL 1/WK 5 MIN PRIOR TO EACH PROMOTER DOSE BEGINNING 2 WK POST CARCINOGEN DOSE AND CONTINUING FOR 27 WK (STUDY DUR, Route [Inhibitor]: DERMAL, Species: MOUSE, Strain/Sex: SENCAR/FEMALE, Target Tissue: Type of Lesion: SKIN: PAPILLOMA, Dose [Carcinogen]: 25 NMOL ONCE, Promoter: CHRYSAROBIN, 491-58-7): 100%, 90%, 10%, not significant

Cc1c(C)c2c(c(C)c1O)CCC(C)(CCCC(C)CCCC(C)CCCC(C)C)O2 (configuration not stated)
tumour outcome (control, treated, inhibition, significance) (Carcinogen: N-NITROSOMETHYLBENZYLAMINE, 937-40-6, Dose [Inhibitor]: 30, 172 MG/KG IN DIET BEGINNING POST CARCINOGEN TREATMENT AND CONTINUING FOR 22 WK (STUDY DURATION: 25 WK), Route [Inhibitor]: ORAL, Species: MOUSE, Strain/Sex: C57BL/FEMALE, Target Tissue: Type of Lesion: ESOPHAGUS: TUMOR, Dose [Carcinogen]: 0.2 MG/KG IN CORN OIL 3/WK FOR 3 WK, Promoter: ETHANOL, 64-17-5): 10/17 (59%), 6/16 (38%), 36%, not calculated | tumour outcome (control, treated, inhibition, significance) (Carcinogen: N-NITROSOMETHYLBENZYLAMINE, 937-40-6, Dose [Inhibitor]: 30, 172 MG/KG IN DIET BEGINNING POST CARCINOGEN TREATMENT AND CONTINUING FOR 22 WK (STUDY DURATION: 25 WK), Route [Inhibitor]: ORAL, Species: MOUSE, Strain/Sex: C57BL/FEMALE, Target Tissue: Type of Lesion: ESOPHAGUS: TUMOR, Dose [Carcinogen]: 0.2 MG/KG IN CORN OIL 3/WK FOR 3 WK, Promoter: NONE USED): 6/15 (40%), 3/15 (20%), 50%, not calculated | tumour outcome (control, treated, inhibition, significance) (Carcinogen: UVB IRRADIATION, Dose [Inhibitor]: 0, 25 MG IN 200 µL ACETONE 3/WK FOR DURATION OF STUDY BEGINNING 3 WK PRIOR TO IRRADIATION (STUDY DURATION: 33 WK), Route [Inhibitor]: DERMAL, Species: MOUSE, Strain/Sex: C3H/HEN/FEMALE, Target Tissue: Type of Lesion: SKIN: TUMOR, Dose [Carcinogen]: 6 J/M2/SEC 30 MIN/D, 5 D/WK FOR 27 WK, Promoter: NONE USED): 81%, 42%, 48%, p=0.0065
